# Results: US20250339569A1, “CARBONIC ANHYDRASE IX LIGANDS” (priority 2021, published 2025)
# Starred links: 1 amine or outer side, 2 acyl side, 3 side chain; linkers in the order of their positions; H or OH if unused. Positions of bridges follow the written chain, without caps; N, C: chain ends. Non-standard residues stand in square brackets, D forms with d. Residues, ends and D or L forms follow the SMILES beside them. *: point of attachment. DOTA = O=C(O)CN1CCN(CC(=O)O)CCN(CC(=O)*)CCN(CC(=O)O)CC1; Desaminotyrosyl = O=C(CCc1ccc(O)cc1)*; mXylylene = c1cc(C[*:1])cc(C[*:2])c1; NMeY = CN[C@@H](Cc1ccc(O)cc1)C(=O)O; X2 = O=C(CN1CCC(N[*:1])CC1)[*:2]; Tic = O=C(O)[C@@H]1Cc2ccccc2CN1; Aic = NC1(C(=O)O)Cc2ccccc2C1; Propanoyl(3-OH) = O=C(CCO)*; Isovaleryl = CC(C)CC(=O)*; Thp = NC1(C(=O)O)CCOCC1; βAla = NCCC(=O)O
# Target: T1, CAIX-expressing human HT-29 colorectal cancer cells (Homo sapiens, UniProt Q16790)
# T1 construct: CAIX-expressing human HT-29 colorectal cancer cells; host or cells: HT-29 human colorectal cancer cells
# Test: FACS binding assay (IC50 determination, competition with tracer 3BP-2776 or 3BP-4149)
# Settings: FACS competition on HT-29 cells, Tracer ID 3BP-2776 (10 nM, biotin-labeled), 4° C., 1 hour; read-out: pIC50 category (activity) (converted)
# How it was run: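 HT-29 cells in FACS buffer (PBS, 1% FCS) at 500.000 cells/ml were exposed to compounds competing with a labelled tracer, with biotinylated compounds detected by 1 μg/mL APC-streptavidin for 30 min on ice. APC/Cy5 median fluorescence was read by flow cytometry and IC50 derived by 4PL fit.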
row,SMILES,IC50
1,CC[C@H](C)[C@H](NC(C)=O)C(=O)N[C@@H](Cc1ccc(O)cc1)C(=O)N[C@H]1CSCc2cccc(c2)CSC[C@@H](C(N)=O)NC(=O)[C@H](CO)NC(=O)[C@H](Cc2c[nH]c3ccccc23)NC(=O)[C@H]([C@@H](C)O)NC(=O)[C@H](CC(C)C)NC(=O)[C@H](Cc2c[nH]c3ccccc23)NC(=O)[C@H](CC(=O)O)NC(=O)[C@H]2CCCN2C(=O)[C@H](CCC(=O)O)NC1=O [3BP-3568] (Ac-IYCE[dP]DWLTWSC-NH2; linker 3-12 via mXylylene),< 10 nM
2,CC(C)CC(=O)N[C@@H](Cc1ccc(O)cc1)C(=O)N[C@H]1CSCc2cccc(c2)CSC[C@@H](C(N)=O)NC(=O)[C@H](CO)NC(=O)[C@H](Cc2c[nH]c3ccccc23)NC(=O)[C@H]([C@@H](C)O)NC(=O)[C@H](CC(C)C)NC(=O)[C@H](Cc2c[nH]c3ccccc23)NC(=O)[C@H](CC(=O)O)NC(=O)[C@H]2CCCN2C(=O)[C@H](CCC(=O)O)NC1=O [3BP-3569] (Isovaleryl-YCE[dP]DWLTWSC-NH2; linker 2-11 via mXylylene),< 10 nM
3,CC(=O)N[C@H](C(=O)N[C@@H](Cc1ccccc1)C(=O)N[C@H]1CSCc2cccc(c2)CSC[C@@H](C(N)=O)NC(=O)[C@H](CO)NC(=O)[C@H](Cc2c[nH]c3ccccc23)NC(=O)[C@H]([C@@H](C)O)NC(=O)[C@H](CC(C)C)NC(=O)[C@H](Cc2c[nH]c3ccccc23)NC(=O)[C@H](CC(=O)O)NC(=O)[C@H]2CCCN2C(=O)[C@H](CCC(=O)O)NC1=O)C(C)C [3BP-3570] (Ac-VFCE[dP]DWLTWSC-NH2; linker 3-12 via mXylylene),< 10 nM
4,CC(=O)N[C@H](C(=O)N[C@@H](CO)C(=O)N[C@H]1CSCc2cccc(c2)CSC[C@@H](C(N)=O)NC(=O)[C@H](CO)NC(=O)[C@H](Cc2c[nH]c3ccccc23)NC(=O)[C@H]([C@@H](C)O)NC(=O)[C@H](CC(C)C)NC(=O)[C@H](Cc2c[nH]c3ccccc23)NC(=O)[C@H](CC(=O)O)NC(=O)[C@H]2CCCN2C(=O)[C@H](CCC(=O)O)NC1=O)C(C)C [3BP-3571] (Ac-VSCE[dP]DWLTWSC-NH2; linker 3-12 via mXylylene),< 10 nM
5,CC(=O)N[C@H](C(=O)N1Cc2ccccc2C[C@H]1C(=O)N[C@H]1CSCc2cccc(c2)CSC[C@@H](C(N)=O)NC(=O)[C@H](CO)NC(=O)[C@H](Cc2c[nH]c3ccccc23)NC(=O)[C@H]([C@@H](C)O)NC(=O)[C@H](CC(C)C)NC(=O)[C@H](Cc2c[nH]c3ccccc23)NC(=O)[C@H](CC(=O)O)NC(=O)[C@H]2CCCN2C(=O)[C@H](CCC(=O)O)NC1=O)C(C)C [3BP-3572] (Ac-V[Tic]CE[dP]DWLTWSC-NH2; linker 3-12 via mXylylene),10 to 79.4 nM
6,CC(C)[C@H](NC(=O)CN1CCC(NC(=O)CN2CCN(CC(=O)O)CCN(CC(=O)O)CCN(CC(=O)O)CC2)CC1)C(=O)N[C@@H](Cc1ccc(O)cc1)C(=O)N[C@H]1CSCc2cccc(c2)CSC[C@@H](C(N)=O)NC(=O)[C@H](CO)NC(=O)[C@H](Cc2c[nH]c3ccccc23)NC(=O)[C@H]([C@@H](C)O)NC(=O)C2(CCOCC2)NC(=O)[C@H](Cc2c[nH]c3ccccc23)NC(=O)[C@H](CC(=O)O)NC(=O)[C@H]2CCCN2C(=O)[C@H](CCC(=O)O)NC1=O [3BP-3585] ({DOTA}-[X2]VYCE[dP]DW[Thp]TWSC-NH2; linker 4-13 via mXylylene),< 10 nM
7,CC(C)[C@H](NC(=O)CN1CCC(NC(=O)CN2CCN(CC(=O)O)CCN(CC(=O)O)CCN(CC(=O)O)CC2)CC1)C(=O)N[C@@H](Cc1ccc(O)cc1)C(=O)N[C@H]1CSCc2cccc(c2)CSC[C@@H](C(N)=O)NC(=O)[C@H](CO)NC(=O)[C@H](Cc2c[nH]c3ccccc23)NC(=O)[C@H]([C@@H](C)O)NC(=O)C2(Cc3ccccc3C2)NC(=O)[C@H](Cc2c[nH]c3ccccc23)NC(=O)[C@H](CC(=O)O)NC(=O)[C@H]2CCCN2C(=O)[C@H](CCC(=O)O)NC1=O [3BP-3586] ({DOTA}-[X2]VYCE[dP]DW[Aic]TWSC-NH2; linker 4-13 via mXylylene),< 10 nM
8,CC(=O)N[C@H](C(=O)N[C@@H](CCCNC(=N)N)C(=O)N[C@H]1CSCc2cccc(c2)CSC[C@@H](C(N)=O)NC(=O)[C@H](CO)NC(=O)[C@H](Cc2c[nH]c3ccccc23)NC(=O)[C@H]([C@@H](C)O)NC(=O)[C@H](CC(C)C)NC(=O)[C@H](Cc2c[nH]c3ccccc23)NC(=O)[C@H](CC(=O)O)NC(=O)[C@H]2CCCN2C(=O)[C@H](CCC(=O)O)NC1=O)C(C)C [3BP-3588] (Ac-VRCE[dP]DWLTWSC-NH2; linker 3-12 via mXylylene),< 10 nM
9,CC(=O)N[C@H](C(=O)N(C)[C@@H](Cc1ccc(O)cc1)C(=O)N[C@H]1CSCc2cccc(c2)CSC[C@@H](C(N)=O)NC(=O)[C@H](CO)NC(=O)[C@H](Cc2c[nH]c3ccccc23)NC(=O)[C@H]([C@@H](C)O)NC(=O)[C@H](CC(C)C)NC(=O)[C@H](Cc2c[nH]c3ccccc23)NC(=O)[C@H](CC(=O)O)NC(=O)[C@H]2CCCN2C(=O)[C@H](CCC(=O)O)NC1=O)C(C)C [3BP-3589] (Ac-V[NMeY]CE[dP]DWLTWSC-NH2; linker 3-12 via mXylylene),< 10 nM
10,CC(C)C[C@@H]1NC(=O)[C@H](Cc2c[nH]c3ccccc23)NC(=O)[C@H](CO)NC(=O)[C@H]2CCCN2C(=O)[C@H](CCC(=O)O)NC(=O)[C@@H](NC(=O)[C@H](Cc2ccc(O)cc2)NC(=O)[C@@H](NC(=O)CN2CCC(NC(=O)CN3CCN(CC(=O)O)CCN(CC(=O)O)CCN(CC(=O)O)CC3)CC2)C(C)C)CSCc2cccc(c2)CSC[C@@H](C(N)=O)NC(=O)[C@H](CO)NC(=O)[C@H](Cc2c[nH]c3ccccc23)NC(=O)[C@H]([C@@H](C)O)NC1=O [3BP-3595] ({DOTA}-[X2]VYCE[dP]SWLTWSC-NH2; linker 4-13 via mXylylene),< 10 nM
11,CC(C)C[C@@H]1NC(=O)[C@H](Cc2ccccc2)NC(=O)[C@H](CC(=O)O)NC(=O)[C@H]2CCCN2C(=O)[C@H](CCC(=O)O)NC(=O)[C@@H](NC(=O)[C@H](Cc2ccc(O)cc2)NC(=O)[C@@H](NC(=O)CN2CCC(NC(=O)CN3CCN(CC(=O)O)CCN(CC(=O)O)CCN(CC(=O)O)CC3)CC2)C(C)C)CSCc2cccc(c2)CSC[C@@H](C(N)=O)NC(=O)[C@H](CO)NC(=O)[C@H](Cc2c[nH]c3ccccc23)NC(=O)[C@H]([C@@H](C)O)NC1=O [3BP-3596] ({DOTA}-[X2]VYCE[dP]DFLTWSC-NH2; linker 4-13 via mXylylene),< 10 nM
12,CC(C)C[C@@H]1NC(=O)[C@H](Cc2c[nH]c3ccccc23)NC(=O)[C@H](CC(=O)O)NC(=O)[C@H]2CCCN2C(=O)[C@H](CCC(=O)O)NC(=O)[C@@H](NC(=O)[C@H](Cc2ccc(O)cc2)NC(=O)[C@@H](NC(=O)CN2CCC(NC(=O)CN3CCN(CC(=O)O)CCN(CC(=O)O)CCN(CC(=O)O)CC3)CC2)C(C)C)CSCc2cccc(c2)CSC[C@@H](C(N)=O)NC(=O)[C@H](CO)NC(=O)[C@H](Cc2c[nH]c3ccccc23)NC(=O)[C@H](Cc2c[nH]cn2)NC1=O [3BP-3597] ({DOTA}-[X2]VYCE[dP]DWLHWSC-NH2; linker 4-13 via mXylylene),< 10 nM
13,CC(=O)N[C@H](C(=O)N[C@@H](Cc1ccc(O)cc1)C(=O)N[C@@H]1CSCc2cccc(c2)CSC[C@@H](C(N)=O)NC(=O)[C@H](CO)NC(=O)[C@H](Cc2c[nH]c3ccccc23)NC(=O)[C@H]([C@@H](C)O)NC(=O)[C@H](CC(C)C)NC(=O)[C@H](Cc2c[nH]c3ccccc23)NC(=O)CCNC1=O)C(C)C [3BP-3604] (Ac-VY[dC][βAla]WLTWSC-NH2; linker 3-10 via mXylylene),100 to 794 nM
14,CC(C)CC(=O)N[C@@H](CC(=O)O)C(=O)N[C@H]1CSCc2cccc(c2)CSC[C@@H](C(N)=O)NC(=O)[C@H](CO)NC(=O)[C@H](Cc2c[nH]c3ccccc23)NC(=O)[C@H]([C@@H](C)O)NC(=O)[C@H](CC(C)C)NC(=O)[C@H](Cc2c[nH]c3ccccc23)NC(=O)[C@H](CC(=O)O)NC(=O)[C@H]2CCCN2C(=O)[C@H](CCC(=O)O)NC1=O [3BP-3727] (Isovaleryl-DCE[dP]DWLTWSC-NH2; linker 2-11 via mXylylene),< 10 nM
15,CC(C)CC(=O)N[C@@H](CCC(=O)O)C(=O)N[C@H]1CSCc2cccc(c2)CSC[C@@H](C(N)=O)NC(=O)[C@H](CO)NC(=O)[C@H](Cc2c[nH]c3ccccc23)NC(=O)[C@H]([C@@H](C)O)NC(=O)[C@H](CC(C)C)NC(=O)[C@H](Cc2c[nH]c3ccccc23)NC(=O)[C@H](CC(=O)O)NC(=O)[C@H]2CCCN2C(=O)[C@H](CCC(=O)O)NC1=O [3BP-3728] (Isovaleryl-ECE[dP]DWLTWSC-NH2; linker 2-11 via mXylylene),< 10 nM
16,CC(=O)N[C@@H](Cc1ccc(O)cc1)C(=O)N[C@H]1CSCc2cccc(c2)CSC[C@@H](C(N)=O)NC(=O)[C@H](CO)NC(=O)[C@H](Cc2c[nH]c3ccccc23)NC(=O)[C@H]([C@@H](C)O)NC(=O)[C@H](CC(C)C)NC(=O)[C@H](Cc2c[nH]c3ccccc23)NC(=O)[C@H](CC(=O)O)NC(=O)[C@H]2CCCN2C(=O)[C@H](CCC(=O)O)NC1=O [3BP-3729] (Ac-YCE[dP]DWLTWSC-NH2; linker 2-11 via mXylylene),< 10 nM
17,CC(C)C[C@@H]1NC(=O)[C@H](Cc2c[nH]c3ccccc23)NC(=O)[C@H](CC(=O)O)NC(=O)[C@H]2CCCN2C(=O)[C@H](CCC(=O)O)NC(=O)[C@@H](NC(=O)[C@H](Cc2ccc(O)cc2)NC(=O)CCO)CSCc2cccc(c2)CSC[C@@H](C(N)=O)NC(=O)[C@H](CO)NC(=O)[C@H](Cc2c[nH]c3ccccc23)NC(=O)[C@H]([C@@H](C)O)NC1=O [3BP-3730] ({Propanoyl(3-OH)}-YCE[dP]DWLTWSC-NH2; linker 2-11 via mXylylene),< 10 nM
18,CC(C)C[C@@H]1NC(=O)[C@H](Cc2c[nH]c3ccccc23)NC(=O)[C@H](CC(=O)O)NC(=O)[C@H]2CCCN2C(=O)[C@H](CCC(=O)O)NC(=O)[C@@H](NC(=O)CCc2ccc(O)cc2)CSCc2cccc(c2)CSC[C@@H](C(N)=O)NC(=O)[C@H](CO)NC(=O)[C@H](Cc2c[nH]c3ccccc23)NC(=O)[C@H]([C@@H](C)O)NC1=O [3BP-3731] (Desaminotyrosyl-CE[dP]DWLTWSC-NH2; linker 1-10 via mXylylene),10 to 79.4 nM
